Reference: patent US20040152783A1, “Controlled absorption of admixed thyroid hormone formulations” (priority 2002, published 2004)
Read-outs that look alike come from different tables or passages of the source.

Experiment: Kinetics of T3 absorption after oral dosing in rats; total serum T3 by ELISA
Assay type: in vivo, Sprague-Dawley rats
Settings: for Peak of Delta Curve: oral solution; for Peak of Delta Curve / Deltamax / delta AUC / Tmax: serum TT3; for Percent T3 sodium (AUC 0-24) / Percent T3 sodium (Deltamax) / Percent T3 sodium (Peak of Delta Curve) / Percent T3 sodium (Tmax) / AUC* (0-24) / Deltamax / delta AUC / Tmax: oral; for AUC* (0-24): from mean delta TT3 curve above 0 hour value
Procedure: Defined μg/kg doses were delivered as oral solutions in 0.5% sodium bicarbonate buffer. Rats were dosed immediately following 0 hour serum collection. Serum was collected from rats at two, four, six, nine, 12 and 24 hours after dosing. Total serum T3 concentrations were determined by ELISA using a commercially available kit (Total Triiodothyronine (total T3) ELISA KIT, product #1700, ALPHA DIAGNOSTIC™, San Antonio, Tex.).

[1] = Example 1, T3 sodium 12 μg/kg vs T4 sodium 162 plus T3 sodium 12 μg/kg (13.5:1)
[2] = Example 2, T3 sodium 6 μg/kg vs T4 sodium 54 plus T3 sodium 6 μg/kg (9:1)
[3] = Example 3, T3 sodium 4 μg/kg vs T4 sodium 16 plus T3 sodium 4 μg/kg (4:1)
[4] = Example 4, T3 sodium 4 μg/kg vs T4 sodium 4 plus T3 sodium 4 μg/kg (1:1)
[5] = Example 5, T3 sodium 15 μg/kg vs T4 sodium 6 plus T3 sodium 15 μg/kg (0.4:1)
[6] = Example 6, T3 sodium 15 μg/kg vs T4 sodium 1.5 plus T3 sodium 15 μg/kg (0.1:1)

## N[C@@H](Cc1cc(I)c(Oc2ccc(O)c(I)c2)c(I)c1)C(=O)O [T3 sodium, liothyronine sodium]
Example 1, T3 sodium 12 μg/kg alone vs T4 sodium 162 μg/kg plus T3 sodium 12 μg/kg (T4:T3 13.5:1)
  Peak of Delta Curve: 142 ng/dL
[1]
  Percent T3 sodium (AUC 0-24): 100%
  Percent T3 sodium (Deltamax): 100%
  Percent T3 sodium (Peak of Delta Curve): 100%
  Percent T3 sodium (Tmax): 100%
  AUC* (0-24): 1,469 ng/dLh
  Deltamax: 156 ng/dL
  delta AUC: 1,471 ng/dL·hr
Example 2, T3 sodium 6 μg/kg alone vs T4 sodium 54 μg/kg plus T3 sodium 6 μg/kg (T4:T3 9:1)
  Peak of Delta Curve: 232 ng/dL
[2]
  Percent T3 sodium (AUC 0-24): 100%
  Percent T3 sodium (Deltamax): 100%
  Percent T3 sodium (Peak of Delta Curve): 100%
  Percent T3 sodium (Tmax): 100%
  AUC* (0-24): 2,212 ng/dLh
  Deltamax: 232 ng/dL
  delta AUC: 2,384 ng/dL·hr
Example 3, T3 sodium 4 μg/kg alone vs T4 sodium 16 μg/kg plus T3 sodium 4 μg/kg (T4:T3 4:1)
  Peak of Delta Curve: 65 ng/dL
[3]
  Percent T3 sodium (AUC 0-24): 100%
  Percent T3 sodium (Deltamax): 100%
  Percent T3 sodium (Peak of Delta Curve): 100%
  Percent T3 sodium (Tmax): 100%
  AUC* (0-24): 1,193 ng/dLh
  Deltamax: 69 ng/dL
  delta AUC: 1,193 ng/dL·hr
Example 4, T3 sodium 4 μg/kg alone vs T4 sodium 4 μg/kg plus T3 sodium 4 μg/kg (T4:T3 1:1)
  Peak of Delta Curve: 65 ng/dL
[4]
  Percent T3 sodium (AUC 0-24): 100%
  Percent T3 sodium (Deltamax): 100%
  Percent T3 sodium (Peak of Delta Curve): 100%
  Percent T3 sodium (Tmax): 100%
  AUC* (0-24): 1,193 ng/dLh
  Deltamax: 69 ng/dL
  Tmax: 2.4 h
  delta AUC: 1,193 ng/dL·hr
Example 5, T3 sodium 15 μg/kg alone vs T4 sodium 6 μg/kg plus T3 sodium 15 μg/kg (T4:T3 0.4:1)
  Peak of Delta Curve: 167 ng/dL
[5]
  Percent T3 sodium (AUC 0-24): 100%
  Percent T3 sodium (Deltamax): 100%
  Percent T3 sodium (Peak of Delta Curve): 100%
  Percent T3 sodium (Tmax): 100%
  AUC* (0-24): 1,732 ng/dLh
  Deltamax: 170 ng/dL
  delta AUC: 1,732 ng/dL·hr
Example 6, T3 sodium 15 μg/kg alone vs T4 sodium 1.5 μg/kg plus T3 sodium 15 μg/kg (T4:T3 0.1:1)
  Peak of Delta Curve: 138 ng/dL
[6]
  Percent T3 sodium (AUC 0-24): 100%
  Percent T3 sodium (Deltamax): 100%
  Percent T3 sodium (Peak of Delta Curve): 100%
  Percent T3 sodium (Tmax): 100%
  AUC* (0-24): 1,762 ng/dLh
  Deltamax: 146 ng/dL
  delta AUC: 1,762 ng/dL·hr
Sprague-Dawley, rat, 15 ug/kg, Example 6, T3 sodium 15 μg/kg vs T4 sodium 1.5 plus T3 sodium 15 μg/kg (0.1:1), read-out: Tmax
  Tmax: 5.6 h
Sprague-Dawley, rat, Example 1, T3 sodium 12 μg/kg vs T4 sodium 162 plus T3 sodium 12 μg/kg (13.5:1), read-out: Tmax
  Tmax: 5.2 h
Sprague-Dawley, rat, Example 2, T3 sodium 6 μg/kg vs T4 sodium 54 plus T3 sodium 6 μg/kg (9:1), read-out: Tmax
  Tmax: 2 h
Sprague-Dawley, rat, Example 3, T3 sodium 4 μg/kg vs T4 sodium 16 plus T3 sodium 4 μg/kg (4:1), read-out: Tmax
  Tmax: 2.4 h
Sprague-Dawley, rat, Example 5, T3 sodium 15 μg/kg vs T4 sodium 6 plus T3 sodium 15 μg/kg (0.4:1), read-out: Tmax
  Tmax: 4.6 h
